Values quoted from earlier work in US20250152537A1, “COMPOSITIONS AND METHODS FOR THE TREATMENT OF HUMAN IMMUNODEFICIENCY VIRUS” (PROTHIONE LLC, priority 2022, published 2025).

Details: not told

For `N[C@@H](CCC(=O)N[C@@H](CS)C(=O)NCC(=O)O)C(=O)O` [GSH, glutathione], the membrane permeability is given as “membrane-impermeable”.
